# Reference: patent publication US4452778A, “Synergistic antibacterial compositions and method of treatment of infections caused by multiple antibiotic-resistant organisms” (Eli Lilly and Company, priority 1981, dated 1984)
# Where a name gives a salt, the structure may show the parent alone. Read-outs that look alike come from different tables or passages of the source.
# Columns and labels:
# [1] = 1 mg/kg intramuscular; cited from earlier work
# E. cloacae = experiment: Checkerboard broth dilution synergy study (mic); type: cell-based; conditions: Table III; for MIC: Enterobacter cloacae, read-out: mic, drug alone
# [2] = cited from earlier work; for average peak serum concentration: 1 hour
# Serratia marcescens = experiment: Checkerboard broth dilution synergy study (mic); type: cell-based; conditions: Table III; for MIC: Serratia marcescens, read-out: mic, drug alone
# Pseudomonas maltophilia = experiment: Checkerboard broth dilution synergy study (mic); type: cell-based; conditions: Table III; for MIC: Stenotrophomonas maltophilia, read-out: mic, drug alone
# Pseudomonas aeruginosa = experiment: Checkerboard broth dilution synergy study (mic); type: cell-based; conditions: Table III; for MIC: Pseudomonas aeruginosa, read-out: mic, drug alone
# Acinetobacter sp. = experiment: Checkerboard broth dilution synergy study (mic); type: cell-based; conditions: Table III; for MIC: Acinetobacter, read-out: mic, drug alone
# Proteus rettgeri = experiment: Checkerboard broth dilution synergy study (mic); type: cell-based; conditions: Table III; for MIC: Providencia rettgeri, read-out: mic, drug alone
# Pseudomonas pseudomallei = experiment: microbe, parasite or virus in culture; type: cell-based
# Klebsiella pneumoniae = experiment: Checkerboard broth dilution synergy study (mic); type: cell-based; conditions: Table III; for MIC: Klebsiella pneumoniae, read-out: mic, drug alone
compound,measurement,setting,value
NC[C@H]1O[C@H](O[C@H]2[C@H](O)[C@@H](O[C@H]3O[C@H](CO)[C@@H](O)[C@H](N)[C@H]3O)[C@H](N)C[C@@H]2N)[C@H](N)C[C@@H]1O [tobramycin sulfate],maximum serum concentrations,[1],about 4 mcg/ml
NCC[C@H](O)C(=O)N[C@@H]1C[C@H](N)[C@@H](O[C@H]2O[C@H](CN)[C@@H](O)[C@H](O)[C@H]2O)[C@H](O)[C@H]1O[C@H]1O[C@H](CO)[C@@H](O)[C@H](N)[C@H]1O [amikacin],MIC,E. cloacae; isolate 228,2 µg/mL
same,MIC,E. cloacae; isolate 1253,1 µg/mL
same,MIC,E. cloacae; isolate 1296,4 µg/mL
same,MIC,E. cloacae; isolate 1415,8 µg/mL
same,MIC,E. cloacae; isolate McQuinn,32 µg/mL
same,mic of each drug in combination I + A,E. cloacae; isolate 228,< 0.5 µg/mL
same,mic of each drug in combination I + A,E. cloacae; isolate 1253,< 0.5 µg/mL
same,mic of each drug in combination I + A,E. cloacae; isolate 1296,0.5 µg/mL
same,mic of each drug in combination I + A,E. cloacae; isolate 1415,< 0.5 µg/mL
same,mic of each drug in combination I + A,E. cloacae; isolate McQuinn,2 µg/mL
same,average peak serum concentration,[2]; 250 mg (3.7 mg/kg) intramuscular,about 12 mcg/ml
same,serum level,"[2]; 250 mg (3.7 mg/kg) intramuscular, 10 hours",about 0.3 mcg/ml
same,average peak serum concentration,[2]; 375 mg (5 mg/kg) intramuscular,~16 µg/mL
same,serum level,"[2]; 375 mg (5 mg/kg) intramuscular, 10 hours",~1200 ng/mL
same,serum level,"[2]; 500 mg (7.5 mg/kg) infusion over 30 minutes, 30 minutes post-infusion",24000 ng/mL
same,serum level,"[2]; 500 mg (7.5 mg/kg) infusion over 30 minutes, 1 hour post-infusion",18000 ng/mL
same,serum level,"[2]; 500 mg (7.5 mg/kg) infusion over 30 minutes, 10 hours post-infusion",750 ng/mL
same,mean peak serum concentration,"[2]; 500 mg (7.5 mg/kg) infusion over 30 minutes, end of infusion",38 µg/mL
same,average peak serum concentration,[2]; 500 mg (7.5 mg/kg) intramuscular,~21 µg/mL
same,serum level,"[2]; 500 mg (7.5 mg/kg) intramuscular, 10 hours",~2100 ng/mL
same,MIC,Serratia marcescens; isolate 463-2,1 µg/mL
same,MIC,Serratia marcescens; isolate 606,1 µg/mL
same,MIC,Serratia marcescens; isolate 1414,8 µg/mL
same,MIC,Serratia marcescens; isolate B377,2 µg/mL
same,MIC,Serratia marcescens; isolate Ziegler,4 µg/mL
same,mic of each drug in combination I + A,Serratia marcescens; isolate 463-2,< 0.5 µg/mL
same,mic of each drug in combination I + A,Serratia marcescens; isolate 606,< 0.5 µg/mL
same,mic of each drug in combination I + A,Serratia marcescens; isolate 1414,< 0.5 µg/mL
same,mic of each drug in combination I + A,Serratia marcescens; isolate B377,< 0.5 µg/mL
same,mic of each drug in combination I + A,Serratia marcescens; isolate Ziegler,2 µg/mL
same,MIC,Pseudomonas maltophilia; isolate 10,> 64 µg/mL
same,MIC,Pseudomonas maltophilia; isolate 505,> 64 µg/mL
same,mic of each drug in combination I + A,Pseudomonas maltophilia; isolate 10,< 0.5 µg/mL
same,mic of each drug in combination I + A,Pseudomonas maltophilia; isolate 505,1 µg/mL
same,MIC,Pseudomonas aeruginosa; isolate 316-2,16 µg/mL
same,MIC,Pseudomonas aeruginosa; isolate 362,16 µg/mL
same,MIC,Pseudomonas aeruginosa; isolate 363,32 µg/mL
same,MIC,Pseudomonas aeruginosa; isolate 610,1 µg/mL
same,MIC,Pseudomonas aeruginosa; isolate Brownlee,16 µg/mL
same,mic of each drug in combination I + A,Pseudomonas aeruginosa; isolate 316-2,2 µg/mL
same,mic of each drug in combination I + A,Pseudomonas aeruginosa; isolate 362,2 µg/mL
same,mic of each drug in combination I + A,Pseudomonas aeruginosa; isolate 363,2 µg/mL
same,mic of each drug in combination I + A,Pseudomonas aeruginosa; isolate 610,1 µg/mL
same,mic of each drug in combination I + A,Pseudomonas aeruginosa; isolate Brownlee,4 µg/mL
same,MIC,Acinetobacter sp.; isolate 28-1,8 µg/mL
same,MIC,Acinetobacter sp.; isolate 28-2,4 µg/mL
same,MIC,Acinetobacter sp.; isolate 106,2 µg/mL
same,MIC,Acinetobacter sp.; isolate 107,8 µg/mL
same,MIC,Acinetobacter sp.; isolate 109,4 µg/mL
same,mic of each drug in combination I + A,Acinetobacter sp.; isolate 28-1,8 µg/mL
same,mic of each drug in combination I + A,Acinetobacter sp.; isolate 28-2,< 0.5 µg/mL
same,mic of each drug in combination I + A,Acinetobacter sp.; isolate 106,< 0.5 µg/mL
same,mic of each drug in combination I + A,Acinetobacter sp.; isolate 107,8 µg/mL
same,mic of each drug in combination I + A,Acinetobacter sp.; isolate 109,< 0.5 µg/mL
same,MIC,Proteus rettgeri; isolate 53,8 µg/mL
same,MIC,Proteus rettgeri; isolate 136-1,4 µg/mL
same,MIC,Proteus rettgeri; isolate 768,16 µg/mL
same,MIC,Proteus rettgeri; isolate 997,8 µg/mL
same,MIC,Proteus rettgeri; isolate 1422,4 µg/mL
same,mic of each drug in combination I + A,Proteus rettgeri; isolate 53,< 0.5 µg/mL
same,mic of each drug in combination I + A,Proteus rettgeri; isolate 136-1,1 µg/mL
same,mic of each drug in combination I + A,Proteus rettgeri; isolate 768,< 0.5 µg/mL
same,mic of each drug in combination I + A,Proteus rettgeri; isolate 997,< 0.5 µg/mL
same,mic of each drug in combination I + A,Proteus rettgeri; isolate 1422,8 µg/mL
same,MIC,"Pseudomonas pseudomallei; Burkholderia pseudomallei, read-out: mic, drug alone",32 µg/mL
same,mic of each drug in combination I + A,"Pseudomonas pseudomallei; Table III, isolate not named",8 µg/mL
same,MIC,Klebsiella pneumoniae; isolate 130,4 µg/mL
same,MIC,Klebsiella pneumoniae; isolate 214-1,8 µg/mL
same,MIC,Klebsiella pneumoniae; isolate 463,2 µg/mL
same,MIC,Klebsiella pneumoniae; isolate 938,4 µg/mL
same,MIC,Klebsiella pneumoniae; isolate 1231,4 µg/mL
same,mic of each drug in combination I + A,Klebsiella pneumoniae; isolate 130,< 0.5 µg/mL
same,mic of each drug in combination I + A,Klebsiella pneumoniae; isolate 214-1,< 0.5 µg/mL
same,mic of each drug in combination I + A,Klebsiella pneumoniae; isolate 463,< 0.5 µg/mL
same,mic of each drug in combination I + A,Klebsiella pneumoniae; isolate 938,< 0.5 µg/mL
same,mic of each drug in combination I + A,Klebsiella pneumoniae; isolate 1231,2 µg/mL
